Results on 3 molecules are retold here after publication PMC9925730, “Controlled sequential in situ self-assembly and disassembly of a fluorogenic cisplatin prodrug for cancer theranostics” (Nature Communications, 2023).

Data set [1] can be described thus: LogP measurement in solutions. The following applies: octanol / octanol-saturated water. Format: physicochemical. An excerpt: incompatibility between particles i and j. Considering the relative position and chemical components of all the beads, we always keep aAB = aAC = 28, aAS = aCS = 25, and aBS = 35. The concentration of ABC or AB is fixed at 0.03. We performed the dynamics of total 81 000 DPD beads in a cubic box (303) under the periodic boundary conditions.
In these conditions, we carry out 1.0 × 106 steps for each simulation.
Molecular simulation using the Materials Studio program. For each molecule, the most favourable crystal packing was predicted using the Polymorph module as implemented in Materials Studio. The crystal structure prediction protocol includes three parts, Packing, Geometry Optimization and Clustering. […]
Evaluation of the dephosphorylated efficacy of P-CyPt towards ALP. […] The resulting fluorescence intensities in each well in the first 30 minutes were recorded on a Spark™ 10M Multimode Microplate Reader (λex/em = 680/710 nm), and every two-minute intervals record one point. The amount of CyPt at each time point was determined by a standard curve under the same […]
LogP measurement in solutions. […] The UV-vis absorption spectroscopy or fluorescence spectrum was recorded after being diluted in MeOH/H2O (1:1) system (<1% octanol). The logP value was calculated by dividing the amount in the octanol layer to […]

The nature of data set [2]: Blood circulation half-life (ICP-OES of Pt). Format: in vivo, mice. The following applies: for blood circulation half-life t1/2: mice, i.v., 2.25 mg kg-1 Pt. From the text: Scale bar: 100 μm. The occurrence of hepatotoxicity in […]-treated mice could be presumably owing to (1) the large size of […] (~160 nm) that caused a high liver uptake and (2) the fast release of cytotoxic cisplatin from the liver-resided […] by hepatic GSH that led to a high concentration of cisplatin in the liver. One representative experiment out of two is shown. 30 PBS CDDP Pt IV NP sP- Cy Pt 20 10 0 013 619 25 Days Supplementary Figure 34. Monitoring of the body weight of mice with orthotopic HepG2/Luc liver tumors following indicated treatments. […] Values denote mean ± s.d. (n = 4 independent animals). 120 CDDP Pt IV NP s […] 40 0 0 25510 2015 Time (h) Supplementary Figure 35. Examination of the blood circulation half-lives of […], and CDDP. Plots of the relative amount of Pt (%) in the blood after i.v. injection of […], and CDDP (at a dose of 2.25 mg kg-1 Pt) into healthy mice. Data are mean ± s.d. (n = 3 independent animals). […] 0.23 h). […] The residues were then diluted with 5 mL 2% HNO3 and 5% HCl solution, and the concentrations of Pt element were determined by ICP-OES, which were further applied to calculate the contents of Pt element in the blood. The plot of the percentage of Pt element remained in the blood versus injection time to yield the pharmacokinetic time. Urine and Faeces analysis. […] Urine and faeces were collected at 2 (for 0-2 h), 4 (for 2-4 h), 8 (for 4- 8 h) and 12 h (for […]), which were diluted in methanol and centrifuged at 3,600 × g for 10 min, followed by filtering via a 0.22 μm syringe filter. The solutions were analyzed by HPLC (660 nm detection) to characterize all the mCy-containing compounds. Using the established standard curves for […] Cy-COOH, the amount of each compound in the urine and faeces could be calculated, which were further applied to determine the percentage of them in the urine and faeces. The data were summarized in Supplementary Tables 5-8. […] Urine and faeces were collected and weighed. The urine and faeces were digested with concentrated HNO3 (65~70%) and HCl (36~38%) at 90 °C for 24 h. The solution was diluted to 5 mL 2% HNO3 and 5% HCl solution, and the concentration of Pt element was measured by ICP-OES, which was further applied to calculate the percentage of Pt in corresponding urine and faeces. The data were summarized in Supplementary Tables 9 and 10. 47

Another data set concerns s.c. HeLa tumors. Kind of data set: Biodistribution study of Pt (ICP-OES). Format: in vivo, mice. The following applies: for organ with the highest ID% g^−1: 4 h post i.v. injection; for ID% g^−1 of Pt in tumors: s.c. HeLa tumors, 4 h post i.v. (100 μM, 200 μL), ICP-OES.

The structures appear in SMILES notation. “And” between values parts separate entries of the source, which are not always exact repeats. Equal values may be shown once.

As to `CC1(C)C(/C=C/C2=C3Oc4cc(OP(=O)(O)O)c(Cl)cc4C=C3CCC2)=[N+](CCCNC(=O)[C@@H](Cc2ccccc2)NC(=O)[C@@H](Cc2ccccc2)NC(=O)CCC(=O)[O][Pt]([NH2])([NH2])([OH])([Cl])[Cl])c2ccccc21` [P-CyPt], the LogP value in data set [1] is 0.68 ± 0.03. For the same molecule, the “Relative Pt amount in blood” value in data set [2] (Time 0 h, individual mice) is 89.0517 and 110.783 and 100.165; in data set [2] (Time 0 h, mean of 3 mice) it was 100; in data set [2] (Time 0.5 h, individual mice) it was 75.3589 and 72.0355 and 86.1448; in data set [2] (Time 0.5 h, mean of 3 mice), 77.8464; in data set [2] (Time 1 h, individual mice), 48.6558 and 63.4564 and 58.4934; in data set [2] (Time 1 h, mean of 3 mice), 56.8685. Besides, the “Relative Pt amount in blood” value in data set [2] (Time 2 h, individual mice) was 21.7134 and 35.2733 and 24.195; in data set [2] (Time 2 h, mean of 3 mice), 27.0606; in data set [2] (Time 4 h, individual mice) it was 12.3988 and 8.818 and 6.257; in data set [2] (Time 4 h, mean of 3 mice) it was 9.158; in data set [2] (Time 8 h, individual mice), 7.923 and 5.247 and 4.422; in data set [2] (Time 8 h, mean of 3 mice) it was 5.864. The “Relative Pt amount in blood” value in data set [2] (Time 12 h, individual mice) was 4.1743 and 2.189 and 3.164; in data set [2] (Time 12 h, mean of 3 mice), 3.176; in data set [2] (Time 24 h, individual mice) it was 1.657 and 1.56 and 1.79; in data set [2] (Time 24 h, mean of 3 mice) it was 1.669. In data set [2], the “blood circulation half-life t1/2” value came out at 32.4 ± 3.6 min. Further, the “organ with the highest ID% g^−1” value in the data set with s.c. HeLa tumors was “tumors”. Besides, the “ID% g^−1 of Pt in tumors” value in the data set with s.c. HeLa tumors is around 20.3%.
For the molecule `[NH2][Pt]([NH2])([Cl])[Cl]` [CDDP, cisplatin], the “Relative Pt amount in blood” value was 93.8305 and 92.1406 and 114.029 in data set [2] (Time 0 h, individual mice); 100 in data set [2] (Time 0 h, mean of 3 mice); 57.2961 and 52.6288 and 39.5118 in data set [2] (Time 0.5 h, individual mice); 49.8122 in data set [2] (Time 0.5 h, mean of 3 mice); 22.492 and 12.6341 and 19.9651 in data set [2] (Time 1 h, individual mice); 18.3637 in data set [2] (Time 1 h, mean of 3 mice). Moreover, the “Relative Pt amount in blood” value in data set [2] (Time 2 h, individual mice) is 7.725 and 8.771 and 6.76; in data set [2] (Time 2 h, mean of 3 mice), 7.752; in data set [2] (Time 4 h, individual mice), 2.808 and 1.569 and 2.181; in data set [2] (Time 4 h, mean of 3 mice), 2.186; in data set [2] (Time 8 h, individual mice) it was 1.408 and 0.5955 and 1.521; in data set [2] (Time 8 h, mean of 3 mice) it was 1.175. The “Relative Pt amount in blood” value in data set [2] (Time 12 h, individual mice) is 1.746 and 1.28 and 0.8611; in data set [2] (Time 12 h, mean of 3 mice), 1.2956; in data set [2] (Time 24 h, individual mice), 1.634 and 0.8852 and 0.6518; in data set [2] (Time 24 h, mean of 3 mice) it was 1.057. Besides, in data set [2], the “blood circulation half-life t1/2” value is 43.8 ± 2.4 min. The “organ with the highest ID% g^−1” value with s.c. HeLa tumors is recorded as “kidneys”. In addition, the “ID% g^−1 of Pt in tumors” value with s.c. HeLa tumors is reported as ~ 3.6%.
`CC1(C)C(/C=C/C2=C3Oc4cc(O)c(Cl)cc4C=C3CCC2)=[N+](CCCNC(=O)[C@@H](Cc2ccccc2)NC(=O)[C@@H](Cc2ccccc2)NC(=O)CCC(=O)[O][Pt]([NH2])([NH2])([OH])([Cl])[Cl])c2ccccc21` [CyPt] gave a LogP value in data set [1] of 2.50 ± 0.03.
